Key:
[1] = biological target: NAMPT (human, recombinant, C-terminally His-tagged) (Homo sapiens, UniProt P43490); experiment: Time-Resolved Fluorescence Resonance Energy Transfer (TR-FRET) Binding Assay of NAMPT; settings: without substrates; 6.8 nM NAMPT, 200 nM probe, 3 hours equilibration
Outline: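 In a displacement format, the nicotinamide-site tracer at 200 nM competed with test compound for 6.8 nM enzyme detected via 1 nM terbium anti-His antibody; incubation lasted 3 hours at room temperature in 50 mM HEPES pH 7.5, 100 mM NaCl. Normalized 520/495 nm emission ratios gave IC50 values.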

PC3 cells = experiment: NAMPT Cell Proliferation Assay; type: cell-based; settings: Homo sapiens, PC-3, 120 h, 5 days incubation, cell viability by Cell Titer Glo
Outline: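 Proliferation of PC3 cells treated 5 days with a 10-fold compound series (top 10 μM) was quantified by Cell Titer Glo luminescence; IC50s were fitted from percent inhibition.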

NAMPT = NAMPT (Homo sapiens, UniProt P43490); experiment: TR-FRET Binding Assay of NAMPT with PRPP; settings: with 200 μM PRPP and 2.5 mM ATP; 2 nM NAMPT, 2 nM probe, 16 hours equilibration
Outline: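 Substrate-containing variant: 200 μM PRPP plus 2.5 mM ATP are added to 2 nM NAMPT and 2 nM probe, with a 16-hour incubation ahead of TR-FRET reading.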

NAMPT (human, recombinant, C-terminally His-tagged), sequence (P43490 whole entry): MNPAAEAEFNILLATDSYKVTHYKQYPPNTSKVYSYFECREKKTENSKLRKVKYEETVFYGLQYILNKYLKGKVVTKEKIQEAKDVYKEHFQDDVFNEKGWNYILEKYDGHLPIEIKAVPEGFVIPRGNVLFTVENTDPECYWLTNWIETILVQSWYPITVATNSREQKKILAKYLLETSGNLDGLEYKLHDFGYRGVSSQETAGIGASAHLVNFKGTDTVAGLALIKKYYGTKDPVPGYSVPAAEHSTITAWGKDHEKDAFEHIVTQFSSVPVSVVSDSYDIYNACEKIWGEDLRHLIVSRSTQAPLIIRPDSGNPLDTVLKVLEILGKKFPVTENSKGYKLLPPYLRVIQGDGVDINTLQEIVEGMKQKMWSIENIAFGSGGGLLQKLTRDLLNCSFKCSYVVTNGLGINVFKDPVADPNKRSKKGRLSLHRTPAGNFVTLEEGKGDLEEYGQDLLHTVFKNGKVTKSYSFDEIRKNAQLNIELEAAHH
NAMPT, sequence (P43490 whole entry): as above

**Q.** With `O=C(CC1CCCO1)Nc1ccc(NC(=O)NCc2ccc3nccn3c2)cc1` (stereo not drawn) [Example 277, N-(4-{[(imidazo[1,2-a]pyridin-6-ylmethyl)carbamoyl]amino}phenyl)-2-(tetrahydrofuran-2-yl)acetamide] as the molecule, how does the IC50 [1] read?
**A.** 103 nM

**Q.** What about the IC50 (PC3 cells) of the same molecule?
**A.** 83.2 nM

**Q.** And the IC50 (NAMPT)?
**A.** 0.667 nM

**Q.** Which results are given for `O=C(CC1CCOCC1)Nc1ccc(NC(=O)NCc2ccc3nccn3c2)cc1` [Example 278, N-(4-{[(imidazo[1,2-a]pyridin-6-ylmethyl)carbamoyl]amino}phenyl)-2-(tetrahydro-2H-pyran-4-yl)acetamide]?
**A.** IC50 [1]: 102 nM; IC50 (PC3 cells): 51.7 nM; IC50 (NAMPT): 0.621 nM

**Q.** What does the source list for `O=C(CCc1ccccc1)Nc1ccc(NC(=O)NCc2ccc3nccn3c2)cc1` [Example 279, N-(4-{[(imidazo[1,2-a]pyridin-6-ylmethyl)carbamoyl]amino}phenyl)-3-phenylpropanamide]?
**A.** IC50 [1]: 68.8 nM; IC50 (PC3 cells): 869 nM; IC50 (NAMPT): 0.437 nM

**Q.** Which IC50 [1] does the source give for `CC(C)CCC(=O)Nc1ccc(NC(=O)NCc2ccn3ccnc3c2)cc1` [Example 280, N-(4-{[(imidazo[1,2-a]pyridin-7-ylmethyl)carbamoyl]amino}phenyl)-4-methylpentanamide] here?
**A.** 11.3 nM

**Q.** And the IC50 (PC3 cells)?
**A.** 13 nM

**Q.** What about the IC50 (NAMPT) of the same molecule?
**A.** 0.213 nM

**Q.** With `O=C(CCC1CCCC1)Nc1ccc(NC(=O)NCc2ccn3ccnc3c2)cc1` [Example 281, 3-cyclopentyl-N-(4-{[(imidazo[1,2-a]pyridin-7-ylmethyl)carbamoyl]amino}phenyl)propanamide] as the molecule, how does the IC50 [1] read?
**A.** 5.5 nM

**Q.** And the IC50 (PC3 cells)?
**A.** 24.8 nM

**Q.** And the IC50 (NAMPT)?
**A.** 0.214 nM

**Q.** Which IC50 [1] does the source give for `CC(C)OCC(=O)Nc1ccc(NC(=O)NCc2ccn3ccnc3c2)cc1` [Example 282, N-(4-{[(imidazo[1,2-a]pyridin-7-ylmethyl)carbamoyl]amino}phenyl)-2-(propan-2-yloxy)acetamide] here?
**A.** 76.5 nM

**Q.** And the IC50 (PC3 cells)?
**A.** 44.7 nM

**Q.** What about the IC50 (NAMPT) of the same molecule?
**A.** 0.297 nM

**Q.** Which results are given for `O=C(CC1CCCO1)Nc1ccc(NC(=O)NCc2ccn3ccnc3c2)cc1` (stereo not drawn) [Example 283, N-(4-{[(imidazo[1,2-a]pyridin-7-ylmethyl)carbamoyl]amino}phenyl)-2-(tetrahydrofuran-2-yl)acetamide]?
**A.** IC50 [1]: 63.2 nM; IC50 (PC3 cells): 145 nM; IC50 (NAMPT): 0.264 nM

**Q.** With `O=C(CC1CCOCC1)Nc1ccc(NC(=O)NCc2ccn3ccnc3c2)cc1` [Example 284, N-(4-{[(imidazo[1,2-a]pyridin-7-ylmethyl)carbamoyl]amino}phenyl)-2-(tetrahydro-2H-pyran-4-yl)acetamide] as the molecule, how does the IC50 [1] read?
**A.** 7.96 nM

**Q.** What about the IC50 (PC3 cells) of the same molecule?
**A.** 107 nM

**Q.** What about the IC50 (NAMPT) of the same molecule?
**A.** 0.169 nM

**Q.** Which results are given for `O=C(CCc1ccccc1)Nc1ccc(NC(=O)NCc2ccn3ccnc3c2)cc1` [Example 285, N-(4-{[(imidazo[1,2-a]pyridin-7-ylmethyl)carbamoyl]amino}phenyl)-3-phenylpropanamide]?
**A.** IC50 [1]: 82.6 nM; IC50 (PC3 cells): 301 nM; IC50 (NAMPT): 0.593 nM

**Q.** `O=C(NCc1ccn2ccnc2c1)Nc1ccc(C2CCN(C(=O)[C@H]3CCOC3)CC2)cc1` [Example 286, 1-(imidazo[1,2-a]pyridin-7-ylmethyl)-3-(4-{1-[(3S)-tetrahydrofuran-3-ylcarbonyl]piperidin-4-yl}phenyl)urea] was tested. Which IC50 [1] did it give?
**A.** 120 nM

**Q.** And the IC50 (PC3 cells)?
**A.** 19.4 nM

**Q.** What about the IC50 (NAMPT) of the same molecule?
**A.** 0.412 nM

**Q.** What does the source list for `O=C(NCc1ccn2ccnc2c1)Nc1ccc(C2CCN(C(=O)[C@@H]3CCOC3)CC2)cc1` [Example 287, 1-(imidazo[1,2-a]pyridin-7-ylmethyl)-3-(4-{1-[(3R)-tetrahydrofuran-3-ylcarbonyl]piperidin-4-yl}phenyl)urea]?
**A.** IC50 [1]: 67.3 nM; IC50 (PC3 cells): 24.1 nM; IC50 (NAMPT): 0.351 nM

**Q.** Which IC50 [1] does the source give for `O=C(NCc1ccn2ccnc2c1)Nc1ccc(C2CCN(C(=O)[C@@H]3CCCO3)CC2)cc1` [Example 288, 1-(imidazo[1,2-a]pyridin-7-ylmethyl)-3-(4-{1-[(2S)-tetrahydrofuran-2-ylcarbonyl]piperidin-4-yl}phenyl)urea] here?
**A.** 49.5 nM

**Q.** What about the IC50 (PC3 cells) of the same molecule?
**A.** 8.11 nM

**Q.** What about the IC50 (NAMPT) of the same molecule?
**A.** 0.568 nM

**Q.** For `O=C(NCc1ccn2ccnc2c1)Nc1ccc(C2CCN(C(=O)[C@H]3CCCO3)CC2)cc1` [Example 289, 1-(imidazo[1,2-a]pyridin-7-ylmethyl)-3-(4-{1-[(2R)-tetrahydrofuran-2-ylcarbonyl]piperidin-4-yl}phenyl)urea], which IC50 [1] is on record?
**A.** 155 nM

**Q.** And the IC50 (PC3 cells)?
**A.** 9.33 nM

**Q.** And the IC50 (NAMPT)?
**A.** 0.286 nM

**Q.** Which results are given for `CC(C)(C)OC(=O)N1CC=C(c2ccc(NC(=O)NCc3ccn4ccnc4c3)c(F)c2)CC1` [Example 290, tert-butyl 4-(3-fluoro-4-{[(imidazo[1,2-a]pyridin-7-ylmethyl)carbamoyl]amino}phenyl)-3,6-dihydropyridine-1(2H)-carboxylate]?
**A.** IC50 [1]: 415 nM; IC50 (PC3 cells): 72.2 nM; IC50 (NAMPT): 0.96 nM

**Q.** How did the IC50 [1] turn out when `CC(C)(C)OC(=O)N1CC[C@H](Oc2ccc(NC(=O)NCc3ccn4ccnc4c3)cc2)C1` [Example 291, tert-butyl (3S)-3-(4-{[(imidazo[1,2-a]pyridin-7-ylmethyl)carbamoyl]amino}phenoxy)pyrrolidine-1-carboxylate] was run?
**A.** 159 nM

**Q.** And the IC50 (PC3 cells)?
**A.** 26.1 nM

**Q.** What about the IC50 (NAMPT) of the same molecule?
**A.** 0.449 nM

**Q.** Which IC50 [1] does the source give for `CC(C)(C)OC(=O)Nc1ccc(C(=O)NCc2ccn3ccnc3c2)cc1F` [Example 292, tert-butyl {2-fluoro-4-[(imidazo[1,2-a]pyridin-7-ylmethyl)carbamoyl]phenyl}carbamate] here?
**A.** 1540 nM

**Q.** What about the IC50 (PC3 cells) of the same molecule?
**A.** 7220 nM

**Q.** And the IC50 (NAMPT)?
**A.** 1.15 nM

**Q.** `CCCn1cc(-c2ccc(C(=O)NCc3ccn4ccnc4c3)s2)cn1` [Example 293, N-(imidazo[1,2-a]pyridin-7-ylmethyl)-5-(1-propyl-1H-pyrazol-4-yl)thiophene-2-carboxamide] was tested. Which IC50 [1] did it give?
**A.** 27.3 nM

**Q.** And the IC50 (PC3 cells)?
**A.** 7.74 nM

**Q.** What about the IC50 (NAMPT) of the same molecule?
**A.** 0.169 nM

**Q.** Which IC50 [1] does the source give for `O=C(NCc1ccn2ccnc2c1)c1ccc(-c2cnn(CCN3CCOCC3)c2)s1` [Example 294, N-(imidazo[1,2-a]pyridin-7-ylmethyl)-5-{1-[2-(morpholin-4-yl)ethyl]-1H-pyrazol-4-yl}thiophene-2-carboxamide] here?
**A.** 44.7 nM

**Q.** What about the IC50 (PC3 cells) of the same molecule?
**A.** 1.88 nM

**Q.** And the IC50 (NAMPT)?
**A.** 0.169 nM

**Q.** Which IC50 [1] does the source give for `CCn1cc(-c2ccc(C(=O)NCc3ccn4ccnc4c3)s2)cn1` [Example 295, 5-(1-ethyl-1H-pyrazol-4-yl)-N-(imidazo[1,2-a]pyridin-7-ylmethyl)thiophene-2-carboxamide] here?
**A.** 56.1 nM

**Q.** And the IC50 (PC3 cells)?
**A.** 24.2 nM

**Q.** What about the IC50 (NAMPT) of the same molecule?
**A.** 0.292 nM

**Q.** How did the IC50 [1] turn out when `O=C(NCc1ccn2ccnc2c1)c1ccc(-c2cnn(C3CCS(=O)(=O)C3)c2)s1` (stereo not drawn) [Example 296, 5-[1-(1,1-dioxidotetrahydrothiophen-3-yl)-1H-pyrazol-4-yl]-N-(imidazo[1,2-a]pyridin-7-ylmethyl)thiophene-2-carboxamide] was run?
**A.** 67 nM

**Q.** What about the IC50 (PC3 cells) of the same molecule?
**A.** 11.5 nM

**Q.** What about the IC50 (NAMPT) of the same molecule?
**A.** 0.226 nM

**Q.** For `O=C(NCc1ccn2ccnc2c1)c1cnc(C2=CCN(C(=O)c3ccccc3)CC2)s1` [Example 297, 2-(1-benzoyl-1,2,3,6-tetrahydropyridin-4-yl)-N-(imidazo[1,2-a]pyridin-7-ylmethyl)-1,3-thiazole-5-carboxamide], which IC50 [1] is on record?
**A.** 177 nM

**Q.** And the IC50 (PC3 cells)?
**A.** 35.8 nM

**Q.** And the IC50 (NAMPT)?
**A.** 0.286 nM

**Q.** What does the source list for `CC(C)(O)Cn1cc(-c2ccc(C(=O)NCc3ccn4ccnc4c3)cc2)cn1` [Example 298, 4-[1-(2-hydroxy-2-methylpropyl)-1H-pyrazol-4-yl]-N-(imidazo[1,2-a]pyridin-7-ylmethyl)benzamide]?
**A.** IC50 [1]: 3410 nM; IC50 (PC3 cells): 2370 nM; IC50 (NAMPT): 0.557 nM

**Q.** Which results are given for `O=C(NCc1ccn2ccnc2c1)c1ccc(-c2ccccc2)s1` [Example 299, N-(imidazo[1,2-a]pyridin-7-ylmethyl)-5-phenylthiophene-2-carboxamide]?
**A.** IC50 [1]: 172 nM; IC50 (PC3 cells): 8640 nM; IC50 (NAMPT): 0.283 nM

From patent US9187472B2 (AbbVie Inc., priority 2012, dated 2015)
